The source of these data is patent US8580746B2, “Amide linkage cyclic natriuretic peptide constructs” (Palatin Technologies, Inc., priority 2006, dated 2013).

Broadly, the pEC50 is −log10 of the EC50, conventionally taken in molar units. For orientation: half-life means how long it takes for the measured level to halve. Low readings indicate rapid decline, high ones slow decline. In general, pKi refers to the Ki on a negative log10 scale, so that one unit is a factor of ten.

pEC50, pKi: −log10 of the molar value. Bridge positions count the residues as written; N and C are the ends. Square brackets hold non-standard residues; d marks the D form. Peptide text beside a SMILES is read from it. * marks the point of attachment. X1 = N=C(N)NCCC[C@H]1C(=O)N[C@@H](C(N)=O)CN1*; dNle = CCCC[C@@H](N)C(=O)O; Dab = NCC[C@H](N)C(=O)O

The target of one data set is T1, hNPR-A (Homo sapiens, UniProt P16066).
T1 sequence (P16066 33-1061): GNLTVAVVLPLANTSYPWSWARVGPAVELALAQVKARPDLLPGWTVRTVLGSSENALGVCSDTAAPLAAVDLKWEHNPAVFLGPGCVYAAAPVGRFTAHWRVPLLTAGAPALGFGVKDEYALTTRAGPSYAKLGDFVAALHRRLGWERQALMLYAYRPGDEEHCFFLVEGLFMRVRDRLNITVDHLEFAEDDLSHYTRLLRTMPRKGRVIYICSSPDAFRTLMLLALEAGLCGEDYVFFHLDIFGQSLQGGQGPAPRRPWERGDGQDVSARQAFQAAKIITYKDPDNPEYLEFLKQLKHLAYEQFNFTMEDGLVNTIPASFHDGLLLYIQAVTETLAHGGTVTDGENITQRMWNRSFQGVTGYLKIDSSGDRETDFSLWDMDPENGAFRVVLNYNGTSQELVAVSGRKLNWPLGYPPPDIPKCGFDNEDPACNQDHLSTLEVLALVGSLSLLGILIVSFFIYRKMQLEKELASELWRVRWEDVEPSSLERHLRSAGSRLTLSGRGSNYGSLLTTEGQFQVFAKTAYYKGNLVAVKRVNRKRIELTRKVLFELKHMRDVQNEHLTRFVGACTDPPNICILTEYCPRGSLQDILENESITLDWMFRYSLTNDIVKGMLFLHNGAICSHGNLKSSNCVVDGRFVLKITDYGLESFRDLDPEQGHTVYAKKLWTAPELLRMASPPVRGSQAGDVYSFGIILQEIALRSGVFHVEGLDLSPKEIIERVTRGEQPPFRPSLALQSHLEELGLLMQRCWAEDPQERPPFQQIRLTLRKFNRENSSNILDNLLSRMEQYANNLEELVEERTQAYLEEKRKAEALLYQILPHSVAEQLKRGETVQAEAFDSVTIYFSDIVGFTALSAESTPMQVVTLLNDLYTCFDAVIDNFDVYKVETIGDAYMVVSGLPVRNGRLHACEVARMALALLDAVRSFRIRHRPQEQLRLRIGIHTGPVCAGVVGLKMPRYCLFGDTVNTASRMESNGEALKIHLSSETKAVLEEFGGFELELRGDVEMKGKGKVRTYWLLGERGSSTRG
The experiment in a line: Accumulation of intracellular cGMP in HEK-293 cells that express recombinant hNPR-A. The data set is classed as cell-based. As to conditions: HEK-hNPRA cells. An excerpt:
(§1) A cDNA clone that encodes for human natriuratic peptide receptor A (NPRA) was purchased from Bio S&T Inc. (Montreal, Quebec). The cDNA clone was inserted into the mammalian expression vector pcDNA3.1 (Invitrogen) and transfected into HEK-293 cells. Stable clones were selected by culture of cells in the presence of G418 sulfate. Expression of NPRA was examined by binding of [^125I]-atrial natriuretic peptide ([^125I]-ANP) to membrane homogenates prepared from clonal cell lines. HEK-hNPRA cells were maintained in culture at 37° C. in 5% CO2 in Dulbecco's Modified Eagle's Medium (DMEM) supplemented with 10% FBS, G418 sulfate (300 μg/mL) sodium glutamate (0.29 mg/mL), penicillin (100 units/mL) and streptomycin (100 ug/mL).
Functional evaluation of constructs was performed by measuring the accumulation of intracellular cGMP in HEK-293 cells that express recombinant hNPR-A. HEK-NPRA cells were harvested by washing and centrifugation in Cell Dissociation Buffer (Gibco, Life Technologies). Pelleted cells were resuspended in Hank's Balanced Salt Solution (HBSS) containing 10 mM Hepes (pH 7.4), 5 mM MgCl2, […], 1 mM 1,10-phenanthroline and BSA (0.5 mg/mL). Following centrifugation, cells were resuspended in the above buffer supplemented with 0.5 mM 3-isobutyl-1-methylxanthine (IBMX). Cells (˜2×10^5/well) were added to each well of a 96-well plate and incubated for 15 minutes at 37° C. Following the pre-incubation period, cells were incubated for an additional 15 minutes in the presence of increasing concentrations of constructs. The reaction was terminated by lysis of the cells with temperature shock. The reaction plate was incubated in a dry ice/ethanol bath for 15 minutes followed by incubation at 90° C. for 10 minutes. Accumulation of cGMP was measured using the cGMP Flashplate RIA (Perkin-Elmer). Data analysis and EC50 values were determined by using nonlinear regression analysis with GraphPad Prism® software.

For data set [1] the following is noted: in vivo. The protocol:
In other tests, resistance to degradation by a 50 μM concentration of human neutral endopeptidase was determined for selected constructs.

For data set [2], the target named is T2, human natriuratic peptide receptor A (NPRA) (Homo sapiens, UniProt P16066).
T2 sequence (P16066 33-1061): T1 sequence (P16066 33-1061)
The experiment in a line: Competitive inhibition binding assay, [125I]-ANP, membrane homogenates from HEK-hNPRA cells. As to conditions: [125I]-ANP competition, HEK-hNPRA membranes.
From the text: as §1
A competitive inhibition binding assay was performed using crude membrane homogenates prepared from HEK-hNPRA cells. To prepare membrane homogenates, cells were rinsed with phosphate-buffered saline and incubated for 15 minutes at 4° C. in hypotonic lysis buffer (10 mM Tris, pH 7.4+5 mM EDTA). Cells were transferred from plates to polypropylene tubes and homogenized. Homogenates were centrifuged at 25,000×g for 20 minutes. Pellets were resuspended in buffer consisting of 50 mM Tris (pH 7.4) and 1 mM EDTA, homogenized and centrifuged at 25,000×g for 20 minutes. Pellets were resuspended in buffer consisting of 100 mM Tris (pH 7.4) and 10 mM MgCl2 and stored at −80° C. until needed. On the day of an assay, homogenates were thawed and homogenized. Binding of [^125I]-ANP was carried out in buffer containing 25 mM Hepes (pH 7.4), 100 mM NaCl, 2 mM CaCl2, 5 mM MgCl2, 0.1% BSA and 1 mM 1,10-phenanthroline. Homogenates (1-10 μg protein/well) were incubated with [^125I]-ANP (25-30 pM) and increasing concentrations of competing ligands in Millipore filter plates for 120 minutes at 4° C. Assays were stopped by addition of cold wash buffer (phosphate-buffered saline) followed by filtration using a vacuum manifold. Bound radioactivity was determined using a gamma counter. Non-specific binding was defined by binding of [I^125]-hANP to non-transfected HEK293 membranes. Data were analyzed using GraphPad Prism® curve-fitting software.

Turning to `CCCC[C@H]1NC(=O)[C@H](CCCNC(=N)N)NC(=O)CNC(=O)CNC(=O)[C@H](Cc2ccccc2)NC(=O)[C@H](Cc2c[nH]cn2)NC(=O)[C@@H](NC(=O)[C@@H](C)N)CC(=O)NCC[C@@H](C(=O)N[C@@H](Cc2ccc(O)cc2)C(=O)N2C[C@H](C(N)=O)NC(=O)[C@@H]2CCCNC(=N)N)NC(=O)[C@H](CO)NC(=O)[C@H]([C@@H](C)CC)NC(=O)[C@H](CCCNC(=N)N)NC(=O)[C@H](CC(=O)O)NC1=O` [4-98] (H-[dA]DHFGGR[dNle]DRIS[Dab]Y-X1; lactam 2-13), the negative logarithm of the EC50 (pEC50) on hNPR-A was 9.60. Besides, the half-life in data set [1] is 6.6 min. The pKi in data set [2] is 9.22.
